From patent US9108957B2 (MITSUBISHI TANABE PHARMA CORPORATION, priority 2009, dated 2015)

molecular target: human recombinant TPK1 (Homo sapiens, UniProt P49841); assay: Inhibitory activity against P-GS1 phosphorylation by TPK1 (Kinase Glo luminescence); format: biochemical; details: 7.5 μM P-GS1, 10 μM ATP, 25° C. for 16 hours, Kinase Glo Reagent luminescent signal
Procedure: Inhibitory Activity of the Medicament of the Present Invention Against P-GS1 Phosphorylation by Bovine Cerebral TPK1
A mixture containing 100 mM HEPES-sodium hydroxide (pH 7.2), 1 mM magnesium acetate, 1 mM EGTA, 1 mM dithiothreitol (DTT), 0.02% Tween 20, 7.5 μM P-GS1, 10 μM ATP, human recombinant TPK1 and a compound shown in Table (a final mixture contained 1% DMSO deriving from a solution of a test compound prepared in the presence of 10% DMSO) was used as a reaction system. The phosphorylation was started by adding ATP, and the reaction was conducted at 25° C. for 16 hours. Then equal volume of Kinase Glo Reagent (Promega) was added to the mixture and luminescent signal from the mixture was measured. IC50 for each compound was calculated by setting the data of mixture without enzyme as 0% activity and that without compound as 100% activity.

Chain of human recombinant TPK1 (P49841 whole entry): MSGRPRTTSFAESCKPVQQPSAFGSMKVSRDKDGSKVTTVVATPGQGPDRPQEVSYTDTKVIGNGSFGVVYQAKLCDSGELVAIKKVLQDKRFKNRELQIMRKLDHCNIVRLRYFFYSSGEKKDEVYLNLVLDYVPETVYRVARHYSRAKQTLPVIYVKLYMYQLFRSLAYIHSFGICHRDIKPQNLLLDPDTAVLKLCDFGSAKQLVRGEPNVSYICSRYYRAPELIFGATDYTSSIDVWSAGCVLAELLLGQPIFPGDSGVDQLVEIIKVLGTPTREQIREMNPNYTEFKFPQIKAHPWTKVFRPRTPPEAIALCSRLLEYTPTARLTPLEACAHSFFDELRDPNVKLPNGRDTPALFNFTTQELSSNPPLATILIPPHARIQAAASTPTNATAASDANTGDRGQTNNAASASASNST

Point of comparison: `Cn1c(N2CCCO[C@@H](c3cccc(Br)c3)C2)nc(-c2ccncc2F)cc1=O` [Compound A008, (S)-2-[2-(3-bromophenyl)-1,4-oxazepan-4-yl]-6-(3-fluoropyridin-4-yl)-3-methylpyrimidin-4(3H)-one], IC50 4.5 nM. Against it:
- Cn1c(N2CCOC(c3ccc(-c4ncon4)cc3)CC2)nc(-c2ccncc2F)cc1=O (single isomer, unassigned; (+)) [Compound A089] — within 1.5-fold, 5.4 nM
- Cc1noc(-c2ccc(C3CCN(c4nc(-c5ccncc5F)cc(=O)n4C)CCO3)cc2)n1 (single isomer, unassigned; (+)) [Compound A090, (+)-2-[7-[4-(3-methyl-1,2,4-oxadiazol-5-yl)-phenyl]-1,4-oxazepan-4-yl]-6-(3-fluoropyridin-4-yl)-3-methylpyrimidin-4(3H)-one] — within 1.5-fold, 6.1 nM
- Cc1nc(-c2ccc(C3CCN(c4nc(-c5ccncc5F)cc(=O)n4C)CCO3)cc2)no1 (single isomer, unassigned; (+)) [Compound A091, (+)-2-[7-[4-(5-methyl-1,2,4-oxadiazol-3-yl)-phenyl]-1,4-oxazepan-4-yl]-6-(3-fluoropyridin-4-yl)-3-methylpyrimidin-4(3H)-one] — 1.5-fold higher, 6.8 nM
- Cn1c(N2CCOC(c3ccc(Br)cc3)CC2)nc(-c2ccncn2)cc1=O (single isomer, unassigned; (+)) [Compound A096, (+)-2-[7-(4-bromophenyl)-1,4-oxazepan-4-yl]-3-methyl-6-(pyrimidin-4-yl)pyrimidin-4(3H)-one] — 2.4-fold higher, 10.8 nM
- Cn1c(N2CCOC(c3ccc(-c4ncon4)cc3)CC2)nc(-c2ccncn2)cc1=O (single isomer, unassigned; (+)) [Compound A099, (+)-2-[7-[4-(1,2,4-oxadiazol-3-yl)-phenyl]-1,4-oxazepan-4-yl]-3-methyl-6-(pyrimidin-4-yl)pyrimidin-4(3H)-one] — 3.3-fold higher, 14.7 nM
- Cc1nc(-c2ccc(C3CCN(c4nc(-c5ccncn5)cc(=O)n4C)CCO3)cc2)no1 (single isomer, unassigned; (+)) [Compound A100, (+)-2-[7-[4-(5-methyl-1,2,4-oxadiazol-3-yl)-phenyl]-1,4-oxazepan-4-yl]-3-methyl-6-(pyrimidin-4-yl)pyrimidin-4(3H)-one] — 3.3-fold higher, 15 nM
- Cc1noc(-c2ccc(C3CCN(c4nc(-c5ccncn5)cc(=O)n4C)CCO3)cc2)n1 (single isomer, unassigned; (+)) [Compound A103, (+)-2-[7-[4-(3-methyl-1,2,4-oxadiazol-5-yl)-phenyl]-1,4-oxazepan-4-yl]-3-methyl-6-(pyrimidin-4-yl)pyrimidin-4(3H)-one] — 3.6-fold higher, 16.3 nM
- Cn1c(N2CCOC(c3ccc(-c4ncno4)cc3)CC2)nc(-c2ccncn2)cc1=O (single isomer, unassigned; (+)) [Compound A107, (+)-2-[7-[4-(1,2,4-oxadiazol-5-yl)-phenyl]-1,4-oxazepan-4-yl]-3-methyl-6-(pyrimidin-4-yl)pyrimidin-4(3H)-one] — 5.1-fold higher, 23 nM
- Cn1c(N2CCOC(c3ccc(Br)cc3)CC2)nc(-c2ccncc2F)cc1=O (single isomer, unassigned; (+)) [Compound A114, (+)-2-(7-(4-bromophenyl)-1,4-oxazepan-4-yl)-6-(3-fluoropyridin-4-yl)-3-methylpyrimidin-4(3H)-one] — 7.7-fold higher, 34.7 nM
- Cn1c(N2CCOC(c3ccc(Br)cc3)CC2)nc(-c2ccncc2)cc1=O (single isomer, unassigned; (+)) [Compound A119, (+)-2-[7-(4-bromophenyl)-1,4-oxazepan-4-yl]-3-methyl-6-(pyridin-4-yl)pyrimidin-4(3H)-one] — 16-fold higher, 72.2 nM
- Cn1c(N2CCOCC(c3ccccc3)C2)nc(-c2ccncn2)cc1=O (single isomer, unassigned; (-)) [Compound A075, (−)-2-(6-phenyl-1,4-oxazepan-4-yl)-3-methyl-6-(pyrimidin-4-yl)pyrimidin-4(3H)-one] — 3.2-fold lower, 1.4 nM
- Cc1nc(-c2ccc(C3CCN(c4nc(-c5ccncc5F)cc(=O)n4C)CCO3)cc2)no1 (single isomer, unassigned; (-)) [Compound A097, (−)-2-[7-[4-(5-methyl-1,2,4-oxadiazol-3-yl)-phenyl]-1,4-oxazepan-4-yl]-6-(3-fluoropyridin-4-yl)-3-methylpyrimidin-4(3H)-one] — 2.5-fold higher, 11.3 nM
- Cn1c(N2CCOC(c3ccc(-c4ncon4)cc3)CC2)nc(-c2ccncc2F)cc1=O (single isomer, unassigned; (-)) [Compound A104, (−)-2-[7-[4-(1,2,4-oxadiazol-3-yl)-phenyl]-1,4-oxazepan-4-yl]-6-(3-fluoropyridin-4-yl)-3-methylpyrimidin-4(3H)-one] — 3.8-fold higher, 17.2 nM
- Cn1c(N2CCOC(c3ccc(-c4ncon4)cc3)CC2)nc(-c2ccncn2)cc1=O (single isomer, unassigned; (-)) [Compound A111, (−)-2-[7-[4-(1,2,4-oxadiazol-3-yl)-phenyl]-1,4-oxazepan-4-yl]-3-methyl-6-(pyrimidin-4-yl)pyrimidin-4(3H)-one] — 6.6-fold higher, 29.5 nM
- Cc1nc(-c2ccc(C3CCN(c4nc(-c5ccncn5)cc(=O)n4C)CCO3)cc2)no1 (single isomer, unassigned; (-)) [Compound A112, (−)-2-[7-[4-(5-methyl-1,2,4-oxadiazol-3-yl)-phenyl]-1,4-oxazepan-4-yl]-3-methyl-6-(pyrimidin-4-yl)pyrimidin-4(3H)-one] — 6.7-fold higher, 30 nM
- Cc1noc(-c2ccc(C3CCN(c4nc(-c5ccncc5F)cc(=O)n4C)CCO3)cc2)n1 (single isomer, unassigned; (-)) [Compound A113, (−)-2-[7-[4-(3-methyl-1,2,4-oxadiazol-5-yl)-phenyl]-1,4-oxazepan-4-yl]-6-(3-fluoropyridin-4-yl)-3-methylpyrimidin-4(3H)-one] — 6.7-fold higher, 30 nM
- Cn1c(N2CCOC(c3ccc(-c4ncno4)cc3)CC2)nc(-c2ccncn2)cc1=O (single isomer, unassigned; (-)) [Compound A116, (−)-2-[7-[4-(1,2,4-oxadiazol-5-yl)-phenyl]-1,4-oxazepan-4-yl]-3-methyl-6-(pyrimidin-4-yl)pyrimidin-4(3H)-one] — 11-fold higher, 48 nM
- Cn1c(N2CCOC(c3ccc(Br)cc3)CC2)nc(-c2ccncc2F)cc1=O (single isomer, unassigned; (-)) [Compound A120, (−)-2-(7-(4-bromophenyl)-1,4-oxazepan-4-yl)-6-(3-fluoropyridin-4-yl)-3-methylpyrimidin-4(3H)-one] — 18-fold higher, 82.8 nM
- Cc1noc(-c2ccc(C3CCN(c4nc(-c5ccncn5)cc(=O)n4C)CCO3)cc2)n1 (single isomer, unassigned; (-)) [Compound A121, (−)-2-[7-[4-(3-methyl-1,2,4-oxadiazol-5-yl)-phenyl]-1,4-oxazepan-4-yl]-3-methyl-6-(pyrimidin-4-yl)pyrimidin-4(3H)-one] — 19-fold higher, 83.4 nM
- Cn1c(N2CCOC(c3ccc(Br)cc3)CC2)nc(-c2ccncn2)cc1=O (single isomer, unassigned; (-)) [Compound A122, (−)-2-(7-(4-bromophenyl)-1,4-oxazepan-4-yl)-3-methyl-6-(pyrimidin-4-yl)pyrimidin-4(3H)-one] — 25-fold higher, 114 nM
- Cc1nc(-c2ccc(C3CN(c4nc(-c5ccncn5)cc(=O)n4C)CCCO3)cc2)no1 (stereo in doubt) [Compound A034, (R)-2-[2-[4-(5-methyl-1,2,4-oxadiazol-3-yl)-phenyl]-1,4-oxazepan-4-yl]-3-methyl-6-(pyrimidin-4-yl)pyrimidin-4(3H)-one] — 5.2-fold higher, 23.5 nM
- Cn1c(N2CCCOCC2c2ccccc2)nc(-c2ccncn2)cc1=O (stereo in doubt) [Compound A065, (S)-3-methyl-2-(3-phenyl-1,4-oxazepan-4-yl)-6-(pyrimidin-4-yl)pyrimidin-4(3H)-one] — 22-fold higher, 97.5 nM
- Cn1c(N2CCCOCC2)nc(-c2ccncc2F)cc1=O [Compound A001, 6-(3-fluoropyridin-4-yl)-3-methyl-2-(1,4-oxazepan-4-yl)pyrimidin-4(3H)-one] — 6.1-fold higher, 27.4 nM
- Cn1c(N2CCCOCC2)nc(-c2ccncn2)cc1=O [Compound A002, 2-(1,4-oxazepan-4-yl)-3-methyl-6-(pyrimidin-4-yl)pyrimidin-4(3H)-one] — 52-fold higher, 232 nM
- Cn1c(N2CCCN(c3ccc(F)cc3)CC2)nc(-c2ccncc2F)cc1=O [Compound A003, 2-[4-(4-fluorophenyl)-1,4-diazepan-1-yl]-6-(3-fluoropyridin-4-yl)-3-methylpyrimidin-4(3H)-one] — 4.1-fold higher, 18.4 nM
- Cn1c(N2CCCN(c3ccc(F)cc3)CC2)nc(-c2ccncn2)cc1=O [Compound A004, 2-[4-(4-fluorophenyl)-1,4-diazepan-1-yl]-3-methyl-6-(pyrimidin-4-yl)pyrimidin-4(3H)-one] — 7.8-fold higher, 35.1 nM
- Cn1c(N2CCCN(c3ccc(F)cc3)CC2)nc(-c2ccncc2)cc1=O [Compound A005, 2-[4-(4-fluorophenyl)-1,4-diazepan-1-yl]-3-methyl-6-(pyridin-4-yl)pyrimidin-4(3H)-one] — 19-fold higher, 84.2 nM
- Cn1c(N2CCCOC(c3ccccc3)C2)nc(-c2ccncc2F)cc1=O (stereo not shown) [Compound A006, 2-(2-phenyl-1,4-oxazepan-4-yl)-6-(3-fluoropyridin-4-yl)-3-methylpyrimidin-4(3H)-one] — 2-fold lower, 2.3 nM
- Cn1c(N2CCCO[C@@H](c3ccc(C(N)=O)cc3)C2)nc(-c2ccncc2F)cc1=O [Compound A007, (S)-2-[2-(4-aminocarbonylphenyl)-1,4-oxazepan-4-yl]-6-(3-fluoropyridin-4-yl)-3-methylpyrimidin-4(3H)-one] — within 1.5-fold, 3.5 nM
- Cn1c(N2CCCO[C@@H](c3ccc(Br)cc3)C2)nc(-c2ccncn2)cc1=O [Compound A009, (S)-2-[2-(4-bromophenyl)-1,4-oxazepan-4-yl]-3-methyl-6-(pyrimidin-4-yl)pyrimidin-4(3H)-one] — within 1.5-fold, 5.2 nM
